From patent publication US20100267561A1, “HERBICIDAL PYRIDAZINONE DERIVATIVES” (priority 2007, published 2010)

Tests used:
Assay type in all cases: in vivo
[1] = tested on: barnyardgrass (Echinochloa crus-galli); experiment: Test B flooded paddy test plant response
Outline: (§1)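 Compounds were added directly to paddy water over 2-leaf-stage plants in pots flooded 3 cm above soil, water depth maintained. Visual injury scored against controls after 13 to 15 days in greenhouse, 0 (none) to 100 (complete control); dash indicates no result.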

[2] = tested on: ducksalad (Heteranthera limosa); experiment: Test B flooded paddy test plant response; details: Flood (flooded paddy test), scale 0 to 100, 0 no effect, 100 complete control
Outline: as §1

[3] = tested on: umbrella sedge (Cyperus difformis); experiment: Test B flooded paddy test plant response; details: Flood (flooded paddy test), scale 0 to 100, 0 no effect, 100 complete control
Outline: as §1

[4] = tested on: Italian ryegrass (Lolium multiflorum); experiment: Test C pre-/postemergence plant response
Outline: (§2)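 Pre/post spray; solvent blend non-phytotoxic, with surfactant; post stage 1–4 leaves (2–18 cm); controlled environment 15–25 d; visual score 0–100 relative to controls, 100 = complete control.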

[5] = tested on: annual bluegrass (Poa annua); experiment: Test C pre-/postemergence plant response
Outline: as §2

[6] = tested on: blackgrass (Alopecurus myosuroides); experiment: Test C pre-/postemergence plant response
Outline: as §2

[7] = tested on: canarygrass (Phalaris minor); experiment: Test C pre-/postemergence plant response
Outline: as §2

[8] = tested on: downy bromegrass (Bromus tectorum); experiment: Test C pre-/postemergence plant response
Outline: as §2

[9] = tested on: green foxtail (Setaria viridis); experiment: Test C pre-/postemergence plant response
Outline: as §2

[10] = tested on: pigweed (Amaranthus retroflexus); experiment: Test C pre-/postemergence plant response
Outline: as §2

[11] = tested on: spring barley (Hordeum vulgare); experiment: Test C pre-/postemergence plant response
Outline: as §2

[12] = tested on: spring wheat (Triticum aestivum); experiment: Test C pre-/postemergence plant response
Outline: as §2

[13] = tested on: wild mustard (Sinapis arvensis); experiment: Test C pre-/postemergence plant response
Outline: as §2

wild oat (Avena fatua) = experiment: Test C pre-/postemergence plant response
Outline: as §2

[14] = tested on: windgrass (Apera spica-venti); experiment: Test C pre-/postemergence plant response
Outline: as §2

[15] = tested on: winter wheat (Triticum aestivum); experiment: Test C pre-/postemergence plant response
Outline: as §2

[16] = Postemergence, 8 g ai/ha, scale 0 to 100, 0 no effect, 100 complete control
[17] = Postemergence, 16 g ai/ha, scale 0 to 100, 0 no effect, 100 complete control
[18] = Postemergence, 31 g ai/ha, scale 0 to 100, 0 no effect, 100 complete control
[19] = Postemergence, 62 g ai/ha, scale 0 to 100, 0 no effect, 100 complete control
[20] = Preemergence, 8 g ai/ha, scale 0 to 100 (0 no effect, 100 complete control)
[21] = Preemergence, 16 g ai/ha, scale 0 to 100 (0 no effect, 100 complete control)
[22] = Preemergence, 31 g ai/ha, scale 0 to 100 (0 no effect, 100 complete control)
[23] = Preemergence, 62 g ai/ha, scale 0 to 100, 0 no effect, 100 complete control

## Cc1cc(-c2ccc(Cl)cc2)nn1-c1c(OC(=O)CC(C)C)cnn(C)c1=O [Compound 37]
[1]; Flood (flooded paddy test), 62 g ai/ha, scale 0 to 100, 0 no effect, 100 complete control
  Plant response rating, Barnyardgrass: 60
[1]; Flood (flooded paddy test), 125 g ai/ha, scale 0 to 100, 0 no effect, 100 complete control
  Plant response rating, Barnyardgrass: 100
[1]; Flood (flooded paddy test), 250 g ai/ha, scale 0 to 100, 0 no effect, 100 complete control
  Plant response rating, Barnyardgrass: 100
[1]; Flood, 31 g ai/ha, scale 0 to 100
  Plant response rating, Barnyardgrass: 30
[2]; 62 g ai/ha
  Plant response rating, Ducksalad: 70
[2]; 125 g ai/ha
  Plant response rating, Ducksalad: 70
[2]; 250 g ai/ha
  Plant response rating, Ducksalad: 75
[3]; 62 g ai/ha
  Plant response rating, Sedge, Umbrella: 0
[3]; 125 g ai/ha
  Plant response rating, Sedge, Umbrella: 0
[3]; 250 g ai/ha
  Plant response rating, Sedge, Umbrella: 60
[4]; [16]
  Plant response rating, Ryegrass, Italian: 75
[4]; [17]
  Plant response rating, Ryegrass, Italian: 95
[4]; [18]
  Plant response rating, Ryegrass, Italian: 100
[4]; [19]
  Plant response rating, Ryegrass, Italian: 100
[4]; [20]
  Plant response rating, Ryegrass, Italian: 0
[4]; [21]
  Plant response rating, Ryegrass, Italian: 80
[4]; [22]
  Plant response rating, Ryegrass, Italian: 98
[4]; [23]
  Plant response rating, Ryegrass, Italian: 100
[5]; [16]
  Plant response rating, Bluegrass: 0
[5]; [17]
  Plant response rating, Bluegrass: 20
[5]; [18]
  Plant response rating, Bluegrass: 20
[5]; [19]
  Plant response rating, Bluegrass: 20
[5]; [20]
  Plant response rating, Bluegrass: 0
[5]; [21]
  Plant response rating, Bluegrass: 35
[5]; [22]
  Plant response rating, Bluegrass: 60
[5]; [23]
  Plant response rating, Bluegrass: 70
[6]; [16]
  Plant response rating, Blackgrass: 65
[6]; [17]
  Plant response rating, Blackgrass: 90
[6]; [18]
  Plant response rating, Blackgrass: 100
[6]; [19]
  Plant response rating, Blackgrass: 100
[6]; [20]
  Plant response rating, Blackgrass: 35
[6]; [21]
  Plant response rating, Blackgrass: 75
[6]; [22]
  Plant response rating, Blackgrass: 90
[6]; [23]
  Plant response rating, Blackgrass: 98
[7]; [16]
  Plant response rating, Canarygrass: 0
[7]; [17]
  Plant response rating, Canarygrass: 35
[7]; [18]
  Plant response rating, Canarygrass: 75
[7]; [19]
  Plant response rating, Canarygrass: 100
[7]; [20]
  Plant response rating, Canarygrass: 15
[7]; [21]
  Plant response rating, Canarygrass: 60
[7]; [22]
  Plant response rating, Canarygrass: 80
[7]; [23]
  Plant response rating, Canarygrass: 95
[8]; [16]
  Plant response rating, Bromegrass, Downy: 20
[8]; [17]
  Plant response rating, Bromegrass, Downy: 30
[8]; [18]
  Plant response rating, Bromegrass, Downy: 50
[8]; [19]
  Plant response rating, Bromegrass, Downy: 70
[8]; [20]
  Plant response rating, Bromegrass, Downy: 0
[8]; [21]
  Plant response rating, Bromegrass, Downy: 0
[8]; [22]
  Plant response rating, Bromegrass, Downy: 60
[8]; [23]
  Plant response rating, Bromegrass, Downy: 85
[9]; [16]
  Plant response rating, Foxtail, Green: 90
[9]; [17]
  Plant response rating, Foxtail, Green: 100
[9]; [18]
  Plant response rating, Foxtail, Green: 100
[9]; [19]
  Plant response rating, Foxtail, Green: 100
[9]; [20]
  Plant response rating, Foxtail, Green: 75
[9]; [21]
  Plant response rating, Foxtail, Green: 90
[9]; [22]
  Plant response rating, Foxtail, Green: 100
[9]; [23]
  Plant response rating, Foxtail, Green: 100
[10]; [16]
  Plant response rating, Pigweed: 0
[10]; [17]
  Plant response rating, Pigweed: 0
[10]; [18]
  Plant response rating, Pigweed: 0
[10]; [19]
  Plant response rating, Pigweed: 0
[10]; [20]
  Plant response rating, Pigweed: 0
[10]; [21]
  Plant response rating, Pigweed: 0
[10]; [22]
  Plant response rating, Pigweed: 0
[10]; [23]
  Plant response rating, Pigweed: 0
[11]; [16]
  Plant response rating, Barley, Spring: 0
[11]; [17]
  Plant response rating, Barley, Spring: 20
[11]; [18]
  Plant response rating, Barley, Spring: 50
[11]; [19]
  Plant response rating, Barley, Spring: 100
[11]; [20]
  Plant response rating, Barley, Spring: 0
[11]; [21]
  Plant response rating, Barley, Spring: 0
[11]; [22]
  Plant response rating, Barley, Spring: 15
[11]; [23]
  Plant response rating, Barley, Spring: 40
[12]; [16]
  Plant response rating, Wheat, Spring: 15
[12]; [17]
  Plant response rating, Wheat, Spring: 50
[12]; [18]
  Plant response rating, Wheat, Spring: 75
[12]; [19]
  Plant response rating, Wheat, Spring: 95
[12]; [20]
  Plant response rating, Wheat, Spring: 0
[12]; [21]
  Plant response rating, Wheat, Spring: 0
[12]; [22]
  Plant response rating, Wheat, Spring: 90
[12]; [23]
  Plant response rating, Wheat, Spring: 98
[13]; [16]
  Plant response rating, Mustard, Wild: 0
[13]; [17]
  Plant response rating, Mustard, Wild: 0
[13]; [18]
  Plant response rating, Mustard, Wild: 0
[13]; [19]
  Plant response rating, Mustard, Wild: 0
[13]; [20]
  Plant response rating, Mustard, Wild: 0
[13]; [21]
  Plant response rating, Mustard, Wild: 0
[13]; [22]
  Plant response rating, Mustard, Wild: 0
[13]; [23]
  Plant response rating, Mustard, Wild: 0
Wild oat (Avena fatua); [16]
  Plant response rating, Oat, Wild: 25
Wild oat (Avena fatua); [17]
  Plant response rating, Oat, Wild: 80
Wild oat (Avena fatua); [18]
  Plant response rating, Oat, Wild: 90
Wild oat (Avena fatua); [19]
  Plant response rating, Oat, Wild: 95
Wild oat (Avena fatua); [20]
  Plant response rating, Oat, Wild: 20
Wild oat (Avena fatua); [21]
  Plant response rating, Oat, Wild: 20
Wild oat (Avena fatua); [22]
  Plant response rating, Oat, Wild: 70
Wild oat (Avena fatua); [23]
  Plant response rating, Oat, Wild: 80
[14]; [16]
  Plant response rating, Windgrass: 0
[14]; [17]
  Plant response rating, Windgrass: 0
[14]; [18]
  Plant response rating, Windgrass: 15
[14]; [19]
  Plant response rating, Windgrass: 30
[14]; [20]
  Plant response rating, Windgrass: 0
[14]; [21]
  Plant response rating, Windgrass: 20
[14]; [22]
  Plant response rating, Windgrass: 60
[14]; [23]
  Plant response rating, Windgrass: 80
[15]; [16]
  Plant response rating, Wheat, Winter: 0
[15]; [17]
  Plant response rating, Wheat, Winter: 30
[15]; [18]
  Plant response rating, Wheat, Winter: 60
[15]; [19]
  Plant response rating, Wheat, Winter: 90
[15]; [20]
  Plant response rating, Wheat, Winter: 0
[15]; [21]
  Plant response rating, Wheat, Winter: 15
[15]; [22]
  Plant response rating, Wheat, Winter: 25
[15]; [23]
  Plant response rating, Wheat, Winter: 90
